Laboratory results as given in patent US20240226115A1, “AXL INHIBITOR COMPOUNDS” (ARCUS BIOSCIENCES, INC., priority 2021, published 2024).

Target: T1, recombinant human MER (Homo sapiens, UniProt Q12866)
T1 construct: purchased Invitrogen
T1 sequence (Q12866 21-999): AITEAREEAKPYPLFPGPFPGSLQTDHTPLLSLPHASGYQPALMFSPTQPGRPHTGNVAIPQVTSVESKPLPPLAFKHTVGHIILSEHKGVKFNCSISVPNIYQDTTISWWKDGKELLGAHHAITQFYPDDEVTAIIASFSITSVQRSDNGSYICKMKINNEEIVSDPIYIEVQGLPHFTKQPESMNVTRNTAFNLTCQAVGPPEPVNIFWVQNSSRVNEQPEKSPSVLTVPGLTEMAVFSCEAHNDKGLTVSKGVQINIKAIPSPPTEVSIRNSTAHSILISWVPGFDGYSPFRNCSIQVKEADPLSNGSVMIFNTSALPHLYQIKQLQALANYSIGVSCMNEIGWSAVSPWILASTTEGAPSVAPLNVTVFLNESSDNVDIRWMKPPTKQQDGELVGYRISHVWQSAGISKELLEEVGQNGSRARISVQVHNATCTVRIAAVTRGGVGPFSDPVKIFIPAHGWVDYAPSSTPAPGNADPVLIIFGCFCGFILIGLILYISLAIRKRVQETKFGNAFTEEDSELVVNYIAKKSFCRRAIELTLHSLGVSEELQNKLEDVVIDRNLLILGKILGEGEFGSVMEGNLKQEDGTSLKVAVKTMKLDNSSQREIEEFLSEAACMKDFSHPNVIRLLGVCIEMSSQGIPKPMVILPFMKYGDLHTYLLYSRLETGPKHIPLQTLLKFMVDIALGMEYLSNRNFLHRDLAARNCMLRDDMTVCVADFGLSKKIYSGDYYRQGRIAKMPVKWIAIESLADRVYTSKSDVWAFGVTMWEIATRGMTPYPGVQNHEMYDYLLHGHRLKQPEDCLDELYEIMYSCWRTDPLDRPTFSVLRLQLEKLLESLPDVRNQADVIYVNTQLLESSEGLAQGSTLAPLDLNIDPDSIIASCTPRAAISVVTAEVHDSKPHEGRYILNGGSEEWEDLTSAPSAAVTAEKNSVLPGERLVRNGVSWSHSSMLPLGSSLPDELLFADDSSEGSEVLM
Test: HTRF KinEASE-TK biochemical potency, MER
Conditions: 1 nM MER, 700 μM ATP
Protocol: Purified recombinant human AXL, TYRO3 and MER proteins were purchased from Invitrogen™. 10 nM AXL, 2 nM TYRO3 or MER were incubated with varying concentrations of compounds in 50 mM HEPES, pH 7.4, 10 mM MgCl2, 0.01% BSA, 1 mM DTT and 2% DMSO in a total volume of 20 μl in a 384-well microplate (Corning™ #3640) at RT for 1 h. The AXL, TYRO3 and MER enzymatic reaction was initiated by transferring 10 μl of enzyme and compound mixture into 10 μl of 1.6 μM TK Substrate-biotin (HTRF® KinEASE-TK kit, Cisbio) and 1400 μM ATP pre-incubated in 50 mM HEPES, pH 7.4, 10 mM MgCl2, 0.01% BSA, 1 mM DTT in a 384-well microplate (Corning™ #3640) at RT, giving the final reaction conditions: 5 nM AXL, 1 nM TYRO3 or MER, 800 nM TK Substrate-biotin and 700 μM ATP in 50 mM HEPES, pH 7.4, 10 mM MgCl2, 0.01% BSA, 1 mM DTT and 1% DMSO with varying concentrations of compounds. Following 2 h incubation at RT, the AXL, TYRO3 and MER enzymatic reaction was stopped by transfer of 10 μl of reaction into 10 μl of detection mix (400 nM Streptavidin-XL665, 200-fold dilution TK Antibody-Cryptate and detection buffer, HTRF® KinEASE-TK kit, Cisbio) in a white 384-well microplate (Perkin Elmer, OptiPlate 384). After 1 h incubation at RT, the plate was put into a plate reader (Evision) to read at 665/620 nm (acceptor/donor) for HTRF. The value of the DMSO blank (MIN inhibition=100% activity) was used as a negative control. The positive control was established by adding 5 μl of enzyme and DMSO mixture into 10 μl of detection mix followed by addition of 5 μl of TK Substrate-biotin and ATP mixture (MAX inhibition=0% activity). To calculate the percent activity, Equation 1 was used. Ratio665/620 is the value at a given compound concentration: […]

SMILES | IC50 [nM]
O=C1NCCOc2cc(-c3n[nH]c4ncc(-c5ccc6c(c5)CCC(N[C@H]5CCOC5)CC6)cc34)ccc21 (stereo partly drawn) [Example 45, 8-[5-(7-{[(3S)—Oxolan-3-yl]amino}-6,7,8,9-tetrahydro-5H-benzo[7]annulen-2-yl)-1H-pyrazolo[3,4-b]pyridin-3-yl]-2,3,4,5-tetrahydro-1,4-benzoxazepin-5-one] | < 100
O=C1NCCOc2cc(-c3n[nH]c4ncc(-c5ccc6c(c5)CCC(N5CCNCC5)CC6)cc34)ccc21 (stereo not shown) [Example 48, 8-{5-[7-(Piperazin-1-yl)-6,7,8,9-tetrahydro-5H-benzo[7]annulen-2-yl]-1H-pyrazolo[3,4-b]pyridin-3-yl}-2,3,4,5-tetrahydro-1,4-benzoxazepin-5-one] | < 100
Cc1cc2c(cc1-c1n[nH]c3ncc(-c4ccc5c(c4)CCC(N4CCC[C@H]4C)CC5)cc13)OCCNC2=O (stereo partly drawn) [Example 40, 7-Methyl-8-(5-{7-[(2R)-2-methylpyrrolidin-1-yl]-6,7,8,9-tetrahydro-5H-benzo[7]annulen-2-yl}-1H-pyrazolo[3,4-b]pyridin-3-yl)-2,3,4,5-tetrahydro-1,4-benzoxazepin-5-one] | 100 to 1000
CC1(O)CCOc2cc(-c3n[nH]c4ncc(-c5ccc6c(c5)CCN(C5CCCC5)CC6)cc34)ccc21 (stereo not shown) [Example 26, 7-[5-(3-Cyclopentyl-2,3,4,5-tetrahydro-1H-3-benzazepin-7-yl)-1H-pyrazolo[3,4-b]pyridin-3-yl]-4-methyl-3,4-dihydro-2H-1-benzopyran-4-ol] | 100 to 1000
C[C@H]1CCCN1C1(C)CCc2ccc(-c3cnc4[nH]nc(-c5ccc6c(c5)OCCNC6=O)c4c3)cc2CC1 (stereo partly drawn) [Example 24, 8-(5-{7-Methyl-7-[(2S)-2-methylpyrrolidin-1-yl]-6,7,8,9-tetrahydro-5H-benzo[7]annulen-2-yl}-1H-pyrazolo[3,4-b]pyridin-3-yl)-2,3,4,5-tetrahydro-1,4-benzoxazepin-5-one] | < 100
CC1(C)COc2cc(-c3n[nH]c4ncc(-c5ccc6c(c5)CCC(N5CCCC5)CC6)cc34)ccc2C(=O)N1 (stereo not shown) [Example 35, 3,3-Dimethyl-8-{5-[7-(pyrrolidin-1-yl)-6,7,8,9-tetrahydro-5H-benzo[7]annulen-2-yl]-1H-pyrazolo[3,4-b]pyridin-3-yl}-2,3,4,5-tetrahydro-1,4-benzoxazepin-5-one] | < 100
C[C@@H]1CNC(=O)c2ccc(-c3n[nH]c4ncc(-c5ccc6c(c5)CCC(N5CCC[C@H]5C)CC6)cc34)cc2O1 (stereo partly drawn) [Example 59, (2R)-2-Methyl-8-(5-{7-[(2R)-2-methylpyrrolidin-1-yl]-6,7,8,9-tetrahydro-5H-benzo[7]annulen-2-yl}-1H-pyrazolo[3,4-b]pyridin-3-yl)-2,3,4,5-tetrahydro-1,4-benzoxazepin-5-one] | < 100
CC1(O)CCCOc2cc(-c3n[nH]c4ncc(-c5ccc6c(c5)CCN(C5CCCC5)CC6)cc34)ccc21 (stereo not shown) [Example 28, (8-[5-(3-Cyclopentyl-2,3,4,5-tetrahydro-1H-3-benzazepin-7-yl)-1H-pyrazolo[3,4-b]pyridin-3-yl]-5-methyl-2,3,4,5-tetrahydro-1-benzoxepin-5-ol)] | 100 to 1000
O=C1NCCOc2cc(-c3n[nH]c4ncc(-c5ccc6c(c5)CCN(C(=O)C5CC5)CC6)cc34)ccc21 [Example 17, 8-[5-(3-Cyclopropanecarbonyl-2,3,4,5-tetrahydro-1H-3-benzazepin-7-yl)-1H-pyrazolo[3,4-b]pyridin-3-yl]-2,3,4,5-tetrahydro-1,4-benzoxazepin-5-one] | < 100
C[C@@H]1CCCN1C1CCc2ccc(-c3cnc4[nH]nc(-c5ccc6c(c5F)OCCNC6=O)c4c3)cc2CC1 (stereo partly drawn) [Example 60, 9-Fluoro-8-(5-{7-[(2R)-2-methylpyrrolidin-1-yl]-6,7,8,9-tetrahydro-5H-benzo[7]annulen-2-yl}-1H-pyrazolo[3,4-b]pyridin-3-yl)-2,3,4,5-tetrahydro-1,4-benzoxazepin-5-one] | < 100
